Measurements from patent publication US7205305B2, “Inhibitors of p38” (Vertex Pharmaceuticals Incorporated, priority 1996, dated 2007).
Each block holds one compound with its values, some of them ahead of it.

Columns and labels:
activated p38 [1] = molecular target: T1, activated p38 (Homo sapiens, UniProt Q16539); assay: Inhibition of ATPase activity; type: biochemical; settings: ATPase activity of activated p38 (60 nM), 30° C., 30 minutes
Protocol: This assay was carried out in the presence of 10 mM MgCl2, 25 mM β-glycerophosphate, 10% glycerol and 100 mM HEPES buffer at pH 7.6. For a typical Ki determination, the Km for ATP in the ATPase activity of activated p38 reaction was determined in the absence of inhibitor and in the presence of two concentrations of inhibitor. A stock solution was prepared containing all of the above components and activated p38 (60 nM). The stock solution was aliquotted into vials. […] The reaction was initiated by adding various concentrations of ATP and then incubated at 30° C. After 30 minutes, the reactions were quenched with 50 μl of EDTA (0.1 M, final concentration), pH 8.0. The product of p38 ATPase activity, ADP, was quantified by HPLC analysis.
Separation of ADP from ATP was achieved on a reversed phase column (Supelcosil, LC-18, 3 μm, part no. 5–8985) using a binary solvent gradient of following composition: Solvent A—0.1 M phosphate buffer containing 8 mM tetrabutylammonium hydrogen sulfate (Sigma Chemical Co., catalogue no. T-7158), Solvent B—Solvent A with 30% methanol.
Ki was determined from the rate data as a function of inhibitor and ATP concentrations.

activated p38 [2] = molecular target: T1, activated p38; assay: Inhibition of phosphorylation of EGF receptor peptide ("kinase"); type: biochemical; settings: inhibition of phosphorylation of EGF receptor peptide by activated p38
Procedure, shortened: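 Activated p38 was preincubated with inhibitor for 15 min at room temperature in 100 mM HEPES pH 7.6, 10 mM MgCl2, 25 mM β-glycerophosphate, 10% glycerol, 5% DMSO final. Reaction used 200 μM EGF receptor peptide and 100 μM ATP for 30 min at 30° C. TFA-quenched phosphopeptide was quantified by reverse-phase HPLC.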

[3] = tested on: IL-1 production in whole blood; assay: Inhibition of IL-1 production in LPS-stimulated whole blood ("WB"); type: cell-based, human; settings: Homo sapiens
Protocol: (§1) Inhibitors were serially diluted in DMSO from a 20 mM stock. At least 6 serial dilutions were prepared. Then 4× inhibitor stocks were prepared by adding 4 μl of an inhibitor dilution to 1 ml of RPMI1640 medium/10% fetal bovine serum. The 4× inhibitor stocks contained inhibitor at concentrations of 80 μM, 32 μM, 12.8 μM, 5.12 μM, 2.048 μM, 0.819 μM, 0.328 μM, 0.131 μM, 0.052 μM, 0.021 μM etc. The 4× inhibitor stocks were pre-warmed at 37° C. until use.
(§2) Alternatively, whole blood containing an anti-coagulant was used directly in the assay.
(§3) We placed 100 μl of cell suspension or whole blood in each well of a 96-well cell culture plate. Then we added 50 μl of the 4× inhibitor stock to the cells. Finally, we added 50 μl of a lipopolysaccharide (LPS) working stock solution (16 ng/ml in cell culture medium) to give a final concentration of 4 ng/ml LPS in the assay. The total assay volume of the vehicle control was also adjusted to 200 μl by adding 50 μl cell culture medium. The PBMC cells or whole blood were then incubated overnight (for 12–15 hours) at 37° C./5% CO2 in a humidified atmosphere.
(§4) The next day the cells were mixed on a shaker for 3–5 minutes before centrifugation at 500×g for 5 minutes. Cell culture supernatants were harvested and analyzed by ELISA for levels of IL-1b (R & D Systems, Quantikine kits, #DBL50), TNF-α (BioSource, #KHC3012), IL-6 (Endogen, #EH2-IL6) and IL-8 (Endogen, #EH2-IL8) according to the instructions of the manufacturer. The ELISA data were used to generate dose-response curves from which IC50 values were derived.

[4] = tested on: IL-1 production in LPS-stimulated PBMCs; assay: Inhibition of IL-1 production in LPS-stimulated PBMCs ("cell"); type: cell-based, human; settings: Homo sapiens, PBMC
Procedure, shortened: (§5)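 Cytokine levels (IL-1β, TNF-α) in culture supernatants quantified by ELISA, with IC50 taken from dose-response curves. Fresh human PBMCs in RPMI1640 with 10% FBS received serially diluted compound plus LPS (4 ng/ml final) and were cultured 12–15 h at 37 °C, 5% CO2.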

[5] = tested on: IL-6 production in whole blood; assay: Inhibition of IL-6 production in LPS-stimulated whole blood ("WB"); type: cell-based, human; settings: Homo sapiens
Protocol: as §1, §2, §3, §4

[6] = tested on: TNF production in LPS-stimulated PBMCs; assay: Inhibition of TNF production in LPS-stimulated PBMCs ("cell"); type: cell-based, human; settings: Homo sapiens, PBMC
Procedure, shortened: as §5

[7] = tested on: TNF production in whole blood; assay: Inhibition of TNF production in LPS-stimulated whole blood ("WB"); type: cell-based, human; settings: Homo sapiens
Protocol: as §1, §2, §3, §4

T1 sequence (Q16539 whole entry): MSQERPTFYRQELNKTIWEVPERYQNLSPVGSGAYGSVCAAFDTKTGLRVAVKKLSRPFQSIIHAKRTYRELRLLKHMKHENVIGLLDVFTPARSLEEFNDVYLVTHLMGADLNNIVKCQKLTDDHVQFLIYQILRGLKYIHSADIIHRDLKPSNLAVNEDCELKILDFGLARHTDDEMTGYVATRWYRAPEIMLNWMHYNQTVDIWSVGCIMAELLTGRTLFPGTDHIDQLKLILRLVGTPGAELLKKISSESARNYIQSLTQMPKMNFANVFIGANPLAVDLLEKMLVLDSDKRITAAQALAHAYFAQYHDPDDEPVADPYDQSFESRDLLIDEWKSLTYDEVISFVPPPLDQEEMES

Structure (SMILES): O=c1ncn2nc(Sc3ccccc3)ccc2c1-c1ccc(F)cc1 [Compound 2]
Ki (activated p38 [1]): 15000 nM | IC50 (activated p38 [2]): ≥ 1000 nM

Structure (SMILES): O=c1ncn2nc(Sc3ccccc3)ccc2c1-c1ccc(Cl)cc1Cl [Compound 3]
Ki (activated p38 [1]): 5000 nM | IC50 (activated p38 [2]): ≥ 1000 nM

Structure (SMILES): Cc1ccc(Sc2ccc3c(-c4ccc(Cl)cc4Cl)c(=O)ncn3n2)cc1 [Compound 5]
Ki (activated p38 [1]): 2900 nM | IC50 (activated p38 [2]): ≥ 1000 nM

Structure (SMILES): NC(=O)C(c1cccc(-c2ccccc2)n1)c1c(F)cccc1Cl (stereo not drawn) [Compound 306]
IC50 [3]: ≥ 500 nM | IC50 [4]: 100 to 500 nM | IC50 [5]: ≥ 500 nM | IC50 [6]: ≥ 500 nM | IC50 (activated p38 [2]): 100 to 1000 nM | IC50 [7]: ≥ 500 nM

IC50 [3]: ≥ 500 nM | IC50 [5]: ≥ 500 nM | IC50 (activated p38 [2]): ≤ 100 nM | IC50 [7]: ≥ 500 nM
Structure (SMILES): NC(=O)C(c1cccc(-c2ccccc2/C=N\O)n1)c1c(Cl)cccc1Cl (stereo not drawn) [Compound 307]
IC50 [4]: 100 to 500 nM | IC50 [6]: ≥ 500 nM

Structure (SMILES): NC(=O)C(c1cccc(-c2ccc(F)cc2)n1)c1c(Cl)cccc1Cl (stereo not drawn) [Compound 309]
IC50 [3]: ≥ 500 nM | IC50 [4]: 100 to 500 nM | IC50 [5]: ≥ 500 nM | IC50 [6]: 100 to 500 nM | IC50 (activated p38 [2]): 100 to 1000 nM | IC50 [7]: ≥ 500 nM

Structure (SMILES): Cc1cccc(-c2cccc(C(C(N)=O)c3c(Cl)cccc3Cl)n2)c1 (stereo not drawn) [Compound 312]
IC50 [3]: ≥ 500 nM | IC50 [4]: 100 to 500 nM | IC50 [5]: ≥ 500 nM | IC50 [6]: ≥ 500 nM | IC50 (activated p38 [2]): ≤ 100 nM | IC50 [7]: ≥ 500 nM

Structure (SMILES): NC(=O)C(c1cccc(-c2ccc(Cl)cc2Cl)n1)c1c(Cl)cccc1Cl (stereo not drawn) [Compound 325]
IC50 [3]: ≥ 500 nM | IC50 [4]: ≤ 100 nM | IC50 [5]: ≥ 500 nM | IC50 [6]: 100 to 500 nM | IC50 (activated p38 [2]): ≤ 100 nM | IC50 [7]: ≥ 500 nM

Structure (SMILES): NC(=O)C(c1cccc(-c2ccc(F)cc2)n1)c1c(F)cccc1Cl (stereo not drawn) [Compound 329]
IC50 [3]: ≥ 500 nM | IC50 [4]: 100 to 500 nM | IC50 [5]: ≥ 500 nM | IC50 [6]: ≥ 500 nM | IC50 (activated p38 [2]): 100 to 1000 nM | IC50 [7]: ≥ 500 nM

Structure (SMILES): Cc1cccc(-c2cccc(C(C(N)=O)c3c(F)cccc3Cl)n2)c1 (stereo not drawn) [Compound 332]
IC50 [3]: ≥ 500 nM | IC50 [4]: 100 to 500 nM | IC50 [5]: ≥ 500 nM | IC50 [6]: ≥ 500 nM | IC50 (activated p38 [2]): 100 to 1000 nM | IC50 [7]: ≥ 500 nM

Structure (SMILES): Cc1ccccc1-c1cccc(C(C(N)=O)c2c(F)cccc2Cl)n1 (stereo not drawn) [Compound 335]
IC50 [3]: ≥ 500 nM | IC50 [4]: ≥ 500 nM | IC50 [5]: ≥ 500 nM | IC50 [6]: ≥ 500 nM | IC50 (activated p38 [2]): 100 to 1000 nM | IC50 [7]: ≥ 500 nM

Structure (SMILES): NC(=O)C(c1cccc(-c2ccc(Cl)cc2Cl)n1)c1c(F)cccc1Cl (stereo not drawn) [Compound 346]
IC50 [3]: ≥ 500 nM | IC50 [4]: ≥ 500 nM | IC50 [5]: ≥ 500 nM | IC50 [6]: ≥ 500 nM | IC50 (activated p38 [2]): 100 to 1000 nM | IC50 [7]: ≥ 500 nM

Structure (SMILES): NC(=O)C(c1cccc(-c2ccccc2)n1)c1cc(Cl)ccc1Cl (stereo not drawn) [Compound 349]
IC50 [3]: ≥ 500 nM | IC50 [4]: 100 to 500 nM | IC50 [5]: ≥ 500 nM | IC50 [6]: ≥ 500 nM | IC50 (activated p38 [2]): ≥ 1000 nM | IC50 [7]: ≥ 500 nM

Structure (SMILES): NC(=O)C(c1cccc(-c2cccc3ccccc23)n1)c1c(Cl)cccc1Cl (stereo not drawn) [Compound 362]
IC50 [3]: ≥ 500 nM | IC50 [4]: 100 to 500 nM | IC50 [5]: ≥ 500 nM | IC50 [6]: 100 to 500 nM | IC50 (activated p38 [2]): ≤ 100 nM | IC50 [7]: ≥ 500 nM

Structure (SMILES): Cc1cc(F)ccc1-c1cccc(C(C(N)=O)c2c(Cl)cccc2Cl)n1 (stereo not drawn) [Compound 363]
IC50 [3]: ≥ 500 nM | IC50 [4]: ≤ 100 nM | IC50 [5]: ≥ 500 nM | IC50 [6]: 100 to 500 nM | IC50 (activated p38 [2]): ≤ 100 nM | IC50 [7]: ≥ 500 nM

Structure (SMILES): Cc1cc(F)ccc1-c1cccc(C(C(N)=O)c2c(Cl)cc(N)cc2Cl)n1 (stereo not drawn) [Compound 364]
IC50 [3]: ≥ 500 nM | IC50 [4]: ≤ 100 nM | IC50 [5]: ≥ 500 nM | IC50 [6]: 100 to 500 nM | IC50 (activated p38 [2]): ≤ 100 nM | IC50 [7]: ≥ 500 nM

Structure (SMILES): NC(=O)N(c1cccc(-c2ccccc2)n1)c1c(Cl)cccc1Cl [Compound 401]
IC50 [3]: ≥ 500 nM | IC50 [4]: 100 to 500 nM | IC50 [5]: ≥ 500 nM | IC50 [6]: 100 to 500 nM | IC50 (activated p38 [2]): ≤ 100 nM | IC50 [7]: ≥ 500 nM

Structure (SMILES): Cc1ccccc1-c1cccc(N(C(N)=O)c2c(Cl)cccc2Cl)n1 [Compound 402]
IC50 [3]: ≥ 500 nM | IC50 [4]: ≤ 100 nM | IC50 [5]: ≥ 500 nM | IC50 [6]: ≤ 100 nM | IC50 (activated p38 [2]): ≤ 100 nM | IC50 [7]: ≥ 500 nM

Structure (SMILES): Cc1ccccc1-c1cccc(N(C(N)=O)c2c(F)cccc2F)n1 [Compound 403]
IC50 [3]: ≥ 500 nM | IC50 [4]: ≤ 100 nM | IC50 [5]: 250 to 500 nM | IC50 [6]: ≤ 100 nM | IC50 (activated p38 [2]): ≤ 100 nM | IC50 [7]: ≥ 500 nM

Structure (SMILES): NC(=O)N(c1cccc(-c2ccc(F)cc2)n1)c1c(F)cccc1F [Compound 404]
IC50 [3]: ≥ 500 nM | IC50 [4]: ≤ 100 nM | IC50 [5]: ≥ 500 nM | IC50 [6]: ≤ 100 nM | IC50 (activated p38 [2]): ≤ 100 nM | IC50 [7]: ≥ 500 nM

Structure (SMILES): Cc1cc(F)ccc1-c1cccc(N(C(N)=O)c2c(Cl)cccc2Cl)n1 [Compound 409]
IC50 [3]: ≥ 500 nM | IC50 [4]: ≤ 100 nM | IC50 [5]: 250 to 500 nM | IC50 [6]: ≤ 100 nM | IC50 (activated p38 [2]): ≤ 100 nM | IC50 [7]: ≥ 500 nM

Structure (SMILES): Cc1cc(F)ccc1-c1cccc(N(C(N)=O)c2c(F)cccc2F)n1 [Compound 410]
IC50 [3]: 250 to 500 nM | IC50 [4]: ≤ 100 nM | IC50 [5]: 250 to 500 nM | IC50 [6]: ≤ 100 nM | IC50 (activated p38 [2]): ≤ 100 nM | IC50 [7]: 250 to 500 nM

Structure (SMILES): Cc1cc(F)ccc1-c1cccc(N(C(N)=O)c2cc3c(cc2Cl)OCO3)n1 [Compound 411]
IC50 [3]: ≥ 500 nM | IC50 [4]: ≤ 100 nM | IC50 [5]: ≥ 500 nM | IC50 [6]: ≤ 100 nM | IC50 (activated p38 [2]): ≤ 100 nM | IC50 [7]: ≥ 500 nM
